Source: US10703756B2, “Pyrrolo[2,3-D]pyrimidinyl, pyrrolo[2,3-B]pyrazinyl, pyrrolo[2,3-B]pyridinyl acrylamides and epoxides thereof” (Pfizer Inc., priority 2015, dated 2020)
Like-named read-outs stand apart in the source and are kept apart here.

What was measured:
JAK3 enzyme [1] = molecular target: T1, JAK3 enzyme (Homo sapiens, UniProt P52333); assay: JAK Caliper Enzyme Assay at 4 μM ATP; assay type: biochemical
T1 sequence (P52333 1-1124): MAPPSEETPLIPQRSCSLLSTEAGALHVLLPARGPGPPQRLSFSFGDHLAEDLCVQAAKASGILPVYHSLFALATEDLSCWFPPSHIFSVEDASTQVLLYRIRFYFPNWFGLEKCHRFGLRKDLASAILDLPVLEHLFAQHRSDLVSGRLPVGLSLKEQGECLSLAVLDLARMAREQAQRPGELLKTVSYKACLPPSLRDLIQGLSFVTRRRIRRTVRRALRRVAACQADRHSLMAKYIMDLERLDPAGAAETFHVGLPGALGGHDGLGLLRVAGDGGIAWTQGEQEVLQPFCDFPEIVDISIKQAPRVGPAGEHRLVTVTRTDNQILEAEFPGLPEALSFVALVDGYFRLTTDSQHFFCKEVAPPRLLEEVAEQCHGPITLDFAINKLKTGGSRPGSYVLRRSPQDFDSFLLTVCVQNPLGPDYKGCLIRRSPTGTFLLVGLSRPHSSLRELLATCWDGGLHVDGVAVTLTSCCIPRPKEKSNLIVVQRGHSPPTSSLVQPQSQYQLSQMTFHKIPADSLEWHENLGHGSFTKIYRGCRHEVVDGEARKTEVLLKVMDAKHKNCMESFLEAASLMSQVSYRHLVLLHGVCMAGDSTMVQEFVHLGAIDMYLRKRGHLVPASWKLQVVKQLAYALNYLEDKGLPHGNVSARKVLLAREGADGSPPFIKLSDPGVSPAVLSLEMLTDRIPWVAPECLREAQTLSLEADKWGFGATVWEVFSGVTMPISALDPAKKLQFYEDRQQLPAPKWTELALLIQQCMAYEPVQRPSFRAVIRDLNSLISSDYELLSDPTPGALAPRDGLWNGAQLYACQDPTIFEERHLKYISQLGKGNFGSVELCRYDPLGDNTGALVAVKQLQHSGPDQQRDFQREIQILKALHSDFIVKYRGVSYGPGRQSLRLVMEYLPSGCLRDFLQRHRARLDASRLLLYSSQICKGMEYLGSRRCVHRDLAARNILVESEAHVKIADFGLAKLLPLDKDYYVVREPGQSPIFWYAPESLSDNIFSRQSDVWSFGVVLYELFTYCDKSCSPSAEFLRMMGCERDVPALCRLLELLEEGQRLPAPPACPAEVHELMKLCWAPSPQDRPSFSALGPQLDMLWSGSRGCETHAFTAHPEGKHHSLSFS
In short: (§1)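 11-pt ½-log cpd titration in DMSO (top 600 μM, pre-assay); enzyme conc/incubation adjusted per prep → 20-30% peptide phosphorylation; phospho vs non-phospho peptide read by chip-based electrophoretic separation.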

JAK3 enzyme [2] = molecular target: T1, JAK3 enzyme; assay: JAK Caliper Enzyme Assay at 1 mM ATP; assay type: biochemical
In short: as §1

[3] = Stability of JAK3 Covalent Inhibitors in Human Whole Blood; assay type: in vitro ADME; details: 1 μM test compound, 37° C., 180 min incubation; for half-life at 1 μM: both sexes, read-out: Human blood stability t1/2
Procedure: Stability of JAK3 Covalent Inhibitors in Rat and Human Whole Blood
Rat blood was collected from 3 male Sprague-Dawley rats (200-250 g, Charles River Laboratories) and pooled for each study. Human blood was collected from healthy subjects at the Occupational Health & Wellness Center at Pfizer, Groton, Conn. and pooled for each study. Both rat and human blood was collected freshly into K2-EDTA tubes and kept on ice. An aliquot of the blood was transferred to microtubes and pre-warmed for 10 min at 37° C. using a heat block. The test compound was then added (1 μM final concentration) and the incubation was continued for 180 min at 37° C. in duplicates. An aliquot of the incubation mixture was removed at designated time points during the course of the incubation, mixed with an aliquot of acetonitrile containing an internal standard, vortexed and centrifuged. The resulting supernatants were removed and subjected to LC-MS/MS analyses to determine parent compound concentrations. Peak area ratios of the parent compound vs the internal standard were used to determine the % of parent compound remaining vs incubation time.

[4] = tested on: IL-15 induced P-STAT5 in human PBMC; assay: PBMC IL-15 Induced P-STAT5; assay type: cell-based
In short: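 Thawed human PBMC, rested in human plasma, were preincubated 15 min at 37 °C with compound (0.2% DMSO), then stimulated 15 min with IL-15 at 41 ng/mL final. After paraformaldehyde fixation and methanol permeabilisation, Alexa Fluor 647 anti-STAT5 staining overnight at 4 °C was analysed by flow cytometry on total lymphocytes.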

[5] = human PBMC, IL-15 final 41 ng/mL, read-out: PBMC IL15_pSTAT5_IC50
[6] = Homo sapiens, PBMC, read-out: PBMC IL15_pSTAT5_IC50 (nM)

Row | IC50 (JAK3 enzyme [1]) | IC50 (JAK3 enzyme [2]) | half-life at 1 μM [3] | Compound | IC50 [4, 5] | Human blood stability t1/2 [3] | IC50 [4, 6]
1 | 0.23 nM | 34 nM | 3.47 h | C=CC(=O)N1CC[C@@H](Nc2cnc3[nH]cc(C(=O)NCC)c3n2)[C@H](O)C1 (single isomer, unassigned) [Example 33] | 2810 nM |  | 
2 | 0.848 nM | 138 nM | > 6 h | C=CC(=O)N1CC[C@H](Nc2cnc3[nH]cc(C(=O)NCC)c3n2)[C@@H](O)C1 (single isomer, unassigned) [Example 32] | 9100 nM |  | 
3 | 0.995 nM | 177 nM | > 6 h | C=CC(=O)N1C[C@@H](Nc2cnc3[nH]cc(C(=O)NCC)c3n2)CC[C@H]1C (racemic) [Example 74, Cis-racemic-2-{[1-acryloyl-6-methylpiperidin-3-yl]amino}-N-ethyl-5H-pyrrolo[2,3-b]pyrazine-7-carboxamide] | 1180 nM |  | 
4 | 0.586 nM | 141 nM | > 6 h | C=CC(=O)N1CC[C@@H](Nc2cnc3[nH]cc(C(=O)NCC)c3n2)C1 (single isomer, unassigned) [Example 243] | 1730 nM |  | 
5 | 5.89 nM | 1100 nM | 4.86 h | C=CC(=O)N1CCC(Oc2cnc3[nH]cc(-c4ncn(C(C)C)n4)c3n2)CC1 [Example 124, 1-[4-({7-[1-(Propan-2-yl)-1H-1,2,4-triazol-3-yl]-5H-pyrrolo[2,3-b]pyrazin-2-yl}oxy)piperidin-1-yl]prop-2-en-1-one] | 2430 nM |  | 
6 | 2.17 nM | 247 nM | > 6 h | C=CC(=O)N1C[C@@H](Nc2cnc3[nH]cc(C(=O)N[C@H](C)COC)c3n2)CC[C@H]1C (racemic) [Example 68, Cis-racemic-2-{[1-acryloyl-6-methylpiperidin-3-yl]amino}-N-[(2R)-1-methoxypropan-2-yl]-5H-pyrrolo[2,3-b]pyrazine-7-carboxamide] | 4570 nM |  | 
7 | 0.468 nM | 19 nM | > 6 h | C=CC(=O)N1CC[C@H](Nc2cnc3[nH]cc(C(=O)NCC)c3n2)[C@@H](OC)C1 (single isomer, unassigned) [Example 27] | 382 nM |  | 
8 | 0.491 nM | 96 nM | > 6 h | C=CC(=O)N1CC[C@H](CNc2cnc3[nH]cc(C(=O)N[C@@H](C)COC)c3n2)C1 (single isomer, unassigned) [Example 18] | 5990 nM |  | 
9 | 0.501 nM | 105 nM | > 6 h | C=CC(=O)N1CCCC(Nc2cnc3[nH]cc(C(=O)NCC)c3n2)C1 (racemic) [Example 34, Racemic-2-[(1-acryloylpiperidin-3-yl)amino]-N-ethyl-5H-pyrrolo[2,3-b]pyrazine-7-carboxamide] | 580 nM |  | 
10 | 0.39 nM | 57 nM | 3.37 h | C=CC(=O)N1CC[C@H](Nc2cnc3[nH]cc(C(=O)NCC)c3n2)[C@@H](C)C1 (single isomer, unassigned) [Example 45] | 460 nM |  | 
11 | 0.355 nM | 46 nM | > 6 h | C=CC(=O)N1CCC[C@H]1COc1cnc2[nH]cc(C(=O)N[C@@H](C)COC)c2n1 (single isomer, unassigned) [Example 8] | 133 nM |  | 
12 | 1.49 nM | 106 nM | 2.63 h | C=CC(=O)N1CCCC1COc1cnc2[nH]cc(C(=O)N[C@@H](C)COC)c2n1 (mixture of isomers) [Example 7, Racemic-2-[(1-acryloylpyrrolidin-2-yl)methoxyl]-N-[(2S)-1-methoxypropan-2-yl]-5H-pyrrolo[2,3-b]pyrazine-7-carboxamide] | 403 nM |  | 
13 | 0.566 nM | 136 nM | > 6 h | C=CC(=O)N1CC(Nc2cnc3[nH]cc(C(=O)NCC)c3n2)CCC1C (single isomer, unassigned) [Example 76] | 1150 nM |  | 
14 | 14 nM | 1320 nM | > 6 h | C=CC(=O)N1CC[C@@H](Oc2cnc3[nH]cc(C(=O)NCC)c3n2)C1 [Example 87, (R)-2-[(1-acryloylpyrrolidin-3-yl)oxy]-N-ethyl-5H-pyrrolo[2,3-b]pyrazine-7-carboxamide] | 6490 nM |  | 
15 | 2.93 nM | 212 nM | 2.65 h | C=CC(=O)N1CCCC(Oc2cnc3[nH]cc(C(=O)N[C@@H](C)COC)c3n2)C1 (mixture of isomers) [Example 51, Racemic-2-[(1-acryloylpiperidin-3-yl)oxy]-N-[(2S)-1-methoxypropan-2-yl]-5H-pyrrolo[2,3-b]pyrazine-7-carboxamide] | 999 nM |  | 
16 | 1.6 nM | 316 nM | > 6 h | C=CC(=O)N1C[C@@H](Nc2cnc3[nH]cc(C(=O)NCC)c3n2)CC[C@H]1C (single isomer, unassigned) [Example 75] | 2280 nM |  | 
17 | 0.319 nM | 37 nM | 3.16 h | C=CC(=O)N1CC[C@@H](CNc2cnc3[nH]cc(C(=O)N[C@@H](C)COC)c3n2)C1 (single isomer, unassigned) [Example 17] | 2560 nM |  | 
18 | 0.258 nM | 50 nM | 3.73 h | C=CC(=O)N1CC[C@@H](Nc2cnc3[nH]cc(C(=O)NCC)c3n2)[C@H](C)C1 (racemic) [Example 43, Trans-racemic-2-{[(3R,4R)-1-acryloyl-3-methylpiperidin-4-yl]amino}-N-ethyl-5H-pyrrolo[2,3-b]pyrazine-7-carboxamide] | 411 nM |  | 

Row | Compound | IC50 (JAK3 enzyme [1]) | IC50 (JAK3 enzyme [2]) | half-life at 1 μM [3] | IC50 [4, 5] | Human blood stability t1/2 [3] | IC50 [4, 6]
19 | C=CC(=O)N1CC(Nc2ncnc3[nH]ccc23)CCC1[C@@H](C)O (mixture of isomers) [Example 109] | 0.713 nM | 155 nM |  | 320 nM | 2.20175 h | 
20 | C=CC(=O)N1CC[C@H](Nc2cnc3[nH]cc(C(=O)N[C@H](C)COC)c3n2)C[C@@H]1C (single isomer, unassigned) [Example 57] | 4.45 nM | 241 nM | > 6 h |  |  | 3220 nM
21 | C=CC(=O)N1CC[C@H](Nc2cnc3[nH]cc(C(=O)N[C@@H](C)COC)c3n2)C[C@@H]1C (racemic) [Example 353, 2-(((2S,4S)-1-Acryloyl-2-methylpiperidin-4-yl)amino)-N—((S)-1-methoxypropan-2-yl)-5H-pyrrolo[2,3-b]pyrazine-7-carboxamide] | 1.48 nM | 123 nM | > 6 h | 2200 nM |  | 
22 | C=CC(=O)N1CC[C@@H](Nc2cnc3[nH]cc(C(=O)N[C@@H](C)COC)c3n2)C[C@H]1C (stereo in doubt) [Example 56, 2-{[(2R,4R)-1-acryloyl-2-methylpiperidin-4-yl]amino}-N-[(2S)-1-methoxypropan-2-yl]-5H-pyrrolo[2,3-b]pyrazine-7-carboxamide] | 0.927 nM | 70 nM | > 6 h |  |  | 1600 nM
